# Test results from patent US6407064B2, “Aminoalcohol derivative and medicament comprising the same” (Seikagaku Corporation, priority 1999, dated 2002).
# Key:
# [1] = system: enzyme for ganglioside GM3 synthesis, mouse B16 melanoma cell; assay: Activity of enzyme for ganglioside GM3 synthesis (14C-Gal incorporated in total lipid fraction); assay type: cell-based; settings: relative value, control regarded as 100; test compound 24 μM, 24 hours; 14C-Gal incorporation
# Procedure: The gangliosides produced by mouse B16 melanoma cell are almost composed of ganglioside GM3. Therefore, the activity of the enzyme for ganglioside GM3 synthesis can be determined conveniently by measuring the amount of ^14C-Gal incorporated in a total lipid-extracted fraction through a liquid layer partition method.
# (§1) A liquid where the cells of mouse B16 melanoma were suspended was prepared with Dulbecco modified Eagle's medium containing 10% bovine fetal serum, inoculated into a 12-well plate in an amount of 2.0×10^5 cells/ml/well, and cultured in 5% CO2 incubator at 37° C. The treatment with a test compound (24 μM) and the addition of ^14C-Gal (22.2 kBq/11.7 nmol/6 μl/well) were started through the exchange of total amount of the medium 24 hours after the culture was started. Twenty-four hours after the treatment with the test compound was started, the culture mixture was treated with PBS containing 0.02% EDTA and PBS containing 0.25% trypsin successively to recover the cells.
# Then, a mixed solvent of chloroform:methanol=2:1 (3 ml) was added to the cell pellet and, after the subjection to an ultrasonication for 30 minutes, the supernatant was recovered. Furthermore, a mixed solvent of chloroform:methanol=1:1 (3 ml) was added to the residual pellet after the recovery of the supernatant, and a similar operation was carried out. The resulting supernatant was combined with the first supernatant and the whole was evaporated to dryness under a nitrogen stream. A desalinated water (1.0 ml) was added to the total lipid-extracted fraction. After having been subjected to an ultrasonication for 1 minute, the mixture was transferred into a dialysis tube and dialyzed against water for 2 days. The sample after the dialysis was transferred into a vial for liquid scintillation counter and, after the addition of scintillator, the activity of incorporating ^14C-Gal was measured on scintillation counter.
# The values of activity of the compounds of the present invention are shown as relative values obtained by calculation on the basis that the value of a control (a group where no test compound was added) is regarded as 100 in Table 3 below.
# [2] = system: ganglioside GM3, mouse B16 melanoma cells; assay: Synthesized amount of ganglioside GM3 (HPTLC densitometry); assay type: cell-based; settings: relative value, control regarded as 100, test compound 25 μM, 24 hours
# Procedure: as §1, with “culture flask (175 cm^2)” for “12-well plate”, “0.8×10^7 cells/20 ml,” for “2.0×10^5 cells/ml/well,”, “(25” for “(24”, “was” for “and the addition of ^14C-Gal (22.2 kBq/11.7 nmol/6 μl/well) were”, “three fourths” for “total amount”
# Then, a mixed solvent of chloroform:methanol=2:1 (4 ml) was added to the cell pellet and, after the subjection to an ultrasonication for 30 minutes, the cell pellet solution was allowed to stand at room temperature for a night and the supernatant was recovered. Furthermore, a mixed solvent of chloroform:methanol=1:1 (4 ml) was added to the residual pellet after the recovery of the supernatant, and a similar operation was carried out. The resulting supernatant was combined with the first supernatant and the whole was evaporated to dryness under a nitrogen stream. To the total lipid fraction was added a 0.1 N methanolic sodium hydroxide solution (2.0 ml) and the mixture was allowed to stand at 40° C. for 2 hours. Thereafter, 1 N hydrochloric acid (0.2 ml) was added thereto and the mixture was allowed to stand for 1.5 hours.
# Then, the mixture was washed with n-hexane (2 ml×2) and, after the lower layer thus washed was evaporated to dryness under a nitrogen stream, the residue was desalinated by gel filtration chromatography (Sephadex LH-20 (manufactured by Amersham Pharmacia Biotech), diameter of 10 mm, height of 120 mm) using chloroform:methanol=2:1 as the eluting solvent. […] After orcinol-sulfuric acid reagent had been sprayed on the plate, it was heated at 110° C. for 5 minutes and colored spot of ganglioside GM3 was quantitatively determined by means of densitometer (a measuring wavelength of 505 nm). […]
# [3] = target: T1, enzyme for glucosylceramide biosynthesis (Homo sapiens, UniProt Q16739); settings: J. Lipid Res. 28: 565-571 (1987); cited from earlier work
# T1 sequence (Q16739 1-394): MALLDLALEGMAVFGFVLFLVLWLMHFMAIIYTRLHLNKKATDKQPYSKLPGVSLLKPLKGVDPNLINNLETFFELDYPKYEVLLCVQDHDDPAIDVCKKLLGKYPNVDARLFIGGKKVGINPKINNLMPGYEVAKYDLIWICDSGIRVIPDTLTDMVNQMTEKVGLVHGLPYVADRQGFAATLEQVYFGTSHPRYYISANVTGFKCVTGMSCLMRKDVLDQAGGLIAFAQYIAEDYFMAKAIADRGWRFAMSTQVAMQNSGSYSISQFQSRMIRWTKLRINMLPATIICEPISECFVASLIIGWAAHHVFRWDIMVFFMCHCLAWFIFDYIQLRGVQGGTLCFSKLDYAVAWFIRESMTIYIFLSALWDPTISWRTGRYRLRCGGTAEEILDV
# [4] = system: GSLs which are produced starting with glucosylceramide; settings: J. Lipid Res. 28: 565-571 (1987); cited from earlier work
# [5] = system: neurite; settings: literature; cited from earlier work
# [6] = system: synaptic function; settings: Biochem. Biophys. Res. Commun. 222: 494-498 (1996); cited from earlier work
# [7] = system: cultured neurocytes of rat fetal cerebral cortex; assay: Activity of accelerating synapse formation (intracellular calcium ion level, fura-2); assay type: cell-based; settings: relative value, L-PDMP regarded as 100; compound 20 μM; assay on 10th day of culture
# Procedure: The activity of accelerating synapse formation was determined by measuring change of an intracellular calcium ion level resulted from the synchronized spontaneous ignition of neurocytes which is considered to show synapse activities by means of an intracellular calcium ion multipoint observation system using a calcium ion fluorescence indicator, fura-2.
# Concretely, rat fetuses at the 18th day of pregnancy were taken out from Wistar rats (available from Japan SLC), and cerebral cortices of the fetuses were taken out and cut into small pieces. After having been treated with papain (manufactured by Worthington Biochemical) at 37° C. for 30 minutes, the pieces were suspended into a Dulbecco modified Eagle's medium containing 5% bovine neonatal serum and 5% equine serum and the cortices were dissociated into single cells with Cell Striner (70 μm, Falcon). Then, the cells were inoculated into a flexiperm plate coated with 0.5% polyethyleneimine (1.0×10^6 cells/500 μl/well), and was cultured in 7% CO2 incubator at 37° C. The medium was exchanged on 2nd, 5th, and 8th days after the culture had been started. The activity of the compound of the present invention was measured using the primary culture. The compound was added at the time when the medium was exchanged and the concentration of the compound was maintained to be 20 μM. Assay was carried out on 10th day after the culture had been started.
# (2) Measurement of Activity of Accelerating Synapse Formation
# Concretely, after the medium of each well where cells were cultured was substituted with basic salt solution (BSS), 3 μl of a DMSO solution (1 mg/ml) of a calcium ion fluorescence indicator fura-2 was added, and the whole was kept at 37° C. for 1 hour.
Structure (SMILES),Activity of accelerating glycolipid biosynthesis (Test Example 2) [1],Glycolipid content (Test Example 3) [2],effect on enzyme for glucosylceramide biosynthesis [3],intracellular content of GSLs [4],effect on neurite extension [5],effect on synaptic function [6],Activity of synapse formation [7]
"O=C(O)CCCCCCCCC(=O)N[C@@H](CN1CCOCC1)[C@@H](O)c1ccccc1 [Example 25, (1S,2S)-2-(9-carboxynonanoyl)amino-3-morpholino-1-phenyl-1-propanol]",89.2,114.5,,,,,
"CCCCCCCCCC(=O)N[C@H](CN1CCOCC1)[C@H](O)c1ccccc1 [D-threo-PDMP, D-threo-1-phenyl-2-decanoylamino-3-morpholino-1-propanol]",,,specifically inhibits,remarkably reduces intracellular content of all GSLs,suppresses the extension of neurite,suppresses synaptic function,
"CCCCOC(=O)CCC(=O)N[C@@H](CN1CCOCC1)[C@@H](O)c1ccccc1 [Example 5, (1S,2S)-2-(n-butoxy)butanedioylamino-3-morpholino-1-phenyl-1-propanol]",122.3,131.2,,,,,92.5
